Test results as given in paper PMC5646234 (ChemPhotoChem, 2017).

Biological target: T1, Saposin B (SapB) (Homo sapiens, UniProt P07602)
T1 sequence (P07602 195-273): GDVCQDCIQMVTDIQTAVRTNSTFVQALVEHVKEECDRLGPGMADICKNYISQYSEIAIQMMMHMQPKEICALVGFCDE
Assay: tyrosine fluorescence quenching titration
Type: binding

## CC1=C(/C=C/C(C)=C/C=C/C(C)=C/c2cc(/C=C/C=C(C)/C=C/C3=C(C)CCCC3(C)C)cc[n+]2CCO)C(C)(C)CCC1 [A2E, 2-[(1E,3E,5E,7E)-2,5-dimethyl-8-(2,6,6-trimethyl-cyclohex-1-en-1-yl)octa-1,3,5,7-tetraen-1-yl]-1-(2-hydroxyethyl)-4-[(1E,3E,5E)-4-methyl-6-(2,6,6-trimethylcyclohex-1-en-1-yl)hexa-1,3,5-trien-1-yl]pyridinium]
  Kd: 25 µM
